Source: ChEMBL document CHEMBL1129503, “4'-O-[2-(2-fluoromalonyl)]-L-tyrosine: a phosphotyrosyl mimic for the preparation of signal transduction inhibitory peptides” (J Med Chem, 1996)
Where a SMILES comes first, the peptide text is derived from it. The star is where a group is joined. X2 = O=C(O)C(F)(C(=O)O)*; X1 = O=C(O)C(C(=O)O)*

How the values were obtained:
[1] = Ionization constant (pKa2) by treating potentiometric titration data according to the method Noyes; type: physicochemical; settings: read-out: pKa2
[2] = molecular target: T1, Tyrosine-protein phosphatase non-receptor type 1 (Homo sapiens, UniProt P18031); assay: Inhibitory activity against Protein-tyrosine phosphatase 1B-mediated dephosphorylation of phosphorylated insulin receptor using (CHO) cell line transfected with an expression plasmid encoding the normal human insulin receptor [CHO/HIRc]
T1 sequence (P18031 whole entry): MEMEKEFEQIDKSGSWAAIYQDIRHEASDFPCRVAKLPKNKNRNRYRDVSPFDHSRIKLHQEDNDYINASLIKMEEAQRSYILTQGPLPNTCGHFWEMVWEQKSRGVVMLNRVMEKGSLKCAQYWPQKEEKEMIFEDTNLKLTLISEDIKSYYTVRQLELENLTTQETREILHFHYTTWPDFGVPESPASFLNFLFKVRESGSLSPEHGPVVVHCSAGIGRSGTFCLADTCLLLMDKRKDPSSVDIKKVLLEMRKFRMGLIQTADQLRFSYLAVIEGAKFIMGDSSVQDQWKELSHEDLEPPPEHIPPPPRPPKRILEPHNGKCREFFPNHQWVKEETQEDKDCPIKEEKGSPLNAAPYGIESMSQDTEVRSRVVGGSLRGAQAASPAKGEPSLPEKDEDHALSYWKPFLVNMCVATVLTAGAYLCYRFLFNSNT

[3] = Inhibition of binding to p85 Phosphatidylinositol 3-kinase C-terminal SH2 domain

Compound | pKa [1] | IC50 [2] | IC50 [3]
O=C(O)C(F)(Oc1ccc2cc(Br)ccc2c1)C(=O)O | 2.84 | – | –
O=C(O)C(Oc1ccc2cc(Br)ccc2c1)C(=O)O | 3.91 | – | –
CC(=O)N[C@@H](CC(=O)O)C(=O)N[C@@H](C)C(=O)N[C@@H](CC(=O)O)C(=O)N[C@@H](CCC(=O)O)C(=O)N[C@@H](Cc1ccc(OC(C(=O)O)C(=O)O)cc1)C(=O)N[C@@H](CC(C)C)C(N)=O (Ac-DADEY(X1)L-NH2) | – | 10 µM | –
CC(=O)N[C@@H](CC(=O)O)C(=O)N[C@@H](C)C(=O)N[C@@H](CC(=O)O)C(=O)N[C@@H](CCC(=O)O)C(=O)N[C@@H](Cc1ccc(OC(F)(C(=O)O)C(=O)O)cc1)C(=O)N[C@@H](CC(C)C)C(N)=O (Ac-DADEY(X2)L-NH2) | – | 1 µM | –
CSCC[C@H](NC(=O)[C@@H]1CCCN1C(=O)[C@@H](NC(=O)[C@H](Cc1ccc(OC(C(=O)O)C(=O)O)cc1)NC(=O)[C@H](CC(=O)O)NC(C)=O)C(C)C)C(=O)N[C@@H](CC(C)C)C(N)=O (Ac-DY(X1)VPML-NH2) | – | – | 14 µM
CSCC[C@H](NC(=O)[C@@H]1CCCN1C(=O)[C@@H](NC(=O)[C@H](Cc1ccc(OC(F)(C(=O)O)C(=O)O)cc1)NC(=O)[C@H](CC(=O)O)NC(C)=O)C(C)C)C(=O)N[C@@H](CC(C)C)C(N)=O (Ac-DY(X2)VPML-NH2) | – | – | 18 µM
